Our source for the EC50 values is patent US12459914B2, “Compounds and compositions for the treatment of tumors” (FONDAZIONE ISTITUTO ITALIANO DI TECNOLOGIA, priority 2019, dated 2025).

In one assay the test system is BxPC-3 cells. The assay can be described thus: Cell viability assay (CellTiter Glo). In kind it is cell-based. Particulars: Homo sapiens, 72 h.
For a further assay, the target named is T1, BRC4/RAD51 interaction (Homo sapiens, UniProt Q06609).
T1 construct: purchased Creative Biomart (Rad51); Life Technologies (BRC4 peptide)
T1 sequence (Q06609 1-339): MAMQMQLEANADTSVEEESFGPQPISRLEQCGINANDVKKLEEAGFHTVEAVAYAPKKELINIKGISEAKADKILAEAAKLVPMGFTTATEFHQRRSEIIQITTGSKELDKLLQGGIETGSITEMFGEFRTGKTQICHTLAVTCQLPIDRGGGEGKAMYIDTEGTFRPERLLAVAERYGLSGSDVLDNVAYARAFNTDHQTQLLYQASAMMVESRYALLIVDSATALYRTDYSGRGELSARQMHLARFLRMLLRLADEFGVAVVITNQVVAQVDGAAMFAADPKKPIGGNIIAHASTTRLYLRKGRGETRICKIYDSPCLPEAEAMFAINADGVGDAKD
Description: Competitive ELISA assay, disruption of BRC4/RAD51 interaction. In kind it is binding. Particulars: human Rad51, biotinylated BRC4 peptide. The essentials: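 Competitive ELISA: plates coated with biotinylated BRC4 peptide, blocked with 1% BSA/PBST, then hybridized overnight with human Rad51 protein. Compounds tested in triplicate dose-response, […], 1% DMSO. Bound Rad51 detected colorimetrically with anti-Rad51 antibody, HRP secondary and TMB quenched with HCl.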
In general terms: ELISA stands for enzyme-linked immunosorbent assay.

pEC50: −log10 of the molar value.

What is called pEC50 is the negative decadic logarithm of the EC50, by convention in mol/L. Consider `CCC(=O)N1N=C(c2c(-c3ccccc3)c3cc(Cl)ccc3[nH]c2=O)CC1c1ccc(OC)cc1` (centres unmarked) [d.12, 6-chloro-3-[3-(4-methoxyphenyl)-2-propanoyl-3,4-dihydropyrazol-5-yl]-4-phenyl-1H-quinolin-2-one], for which the pEC50 in the assay on BxPC-3 cells and on BRC4/RAD51 interaction was 4.72 each time.
